# pEC50: −log10 of the molar value.
# Columns and labels:
# [1] = tested on: primary human mesenchymal stem cells (hMSCs); experiment: Tenocyte differentiation screening in hMSCs (SCXA-positive cells, 4 days); type: cell-based; settings: 96 h, fold change over DMSO
# Text: Representative compounds were screened using primary human mesenchymal stem cells (hMSCs) to determine their ability to induce tenocyte differentiation (process by which tendon is developed).
# Primary human mesenchymal stem cells (hMSCs) were purchased from Lonza (Walkersville, Md.) and expanded in Mesenchymal Stem Cell Growth Media (Lonza). Cells between passage 3 and 6 were used for the experiments.
# Cells were fixed using 4% formaldehyde (Electron Microscopy Sciences), and stained with anti-Sclerasis (anti-SCXA) antibodies (Abgent, San Diego, Calif.) [Webb S., et. al., Retinoic acid receptor signaling preserves tendon stem cell characteristics and prevents spontaneous differentiation in vitro, Stem Cell Research & Therapy 2016, 7:45] overnight at 4° C. […] Number of cells positive for SCXA in each well was quantified using the Celllnsight CX5. Data was normalized to the average of 12 DMSO treated wells on the same plate using Dotmatics Studies module. The normalized averages (fold change over DMSO) of 3 replicate wells for each compound concentration were calculated. Due to solubility limitations of some of the compounds, values for higher doses were manually corrected and curve fitting and EC50 determinations were performed using Dotmatics Studies.
# EC50 for each compound is reported.
# [2] = tested on: Wnt-responsive promoter driving firefly luciferase in SW480 cells; experiment: Wnt reporter (SP5 promoter-luciferase) screening assay in SW480 cells; type: cell-based; settings: Homo sapiens, 24-40 h, top concentration ten micromolar
# Text: Another screening assay for Wnt activity is described as follows. Reporter cell lines can be generated by stably transducing cells of cancer cell lines (e.g., colon cancer) with a lentiviral construct that include a Wnt-responsive promoter driving expression of the firefly luciferase gene.
# Lentiviral constructs can be made in which the SP5 promoter, a promoter having eight TCF/LEF binding sites derived from the SP5 promoter, is linked upstream of the firefly luciferase gene. The lentiviral constructs can also include a hygromycin resistance gene as a selectable marker. The SP5 promoter construct can be used to transduce SW480 cells, a colon cancer cell line having a mutated APC gene that generates a truncated APC protein, leading to de-regulated accumulation of β-catenin.
# Cultured SW480 cells bearing a reporter construct can be distributed at approximately 10,000 cells per well into 96 well or 384 well plates. Compounds from a small molecule compound library can then be added to the wells in half-log dilutions using a ten micromolar top concentration. A series of control wells for each cell type receive only buffer and compound solvent. Twenty-four to forty hours after the addition of compound, reporter activity for luciferase can be assayed, for example, by addition of the BrightGlo luminescence reagent (Promega) and the Victor3 plate reader (Perkin Elmer). Readings can be normalized to DMSO only treated cells, and normalized activities can then be used in the EC50 calculations.
Compound,pEC50 [1],pEC50 [2]
"CN1CCN(Cc2cncc(-c3ccc4[nH]nc(C(=O)Nc5cccnc5)c4c3)c2)CC1 [compound 61, 5-(5-((4-Methylpiperazin-1-yl)methyl)pyridin-3-yl)-N-(pyridin-3-yl)-1H-indazole-3-carboxamide]",4.91,6.62
"O=C(Nc1cnccc1C(F)(F)F)c1n[nH]c2ccc(-c3cncc(CN4CCCCC4)c3)cc12 [compound 47, 5-(5-(Piperidin-1-ylmethyl)pyridin-3-yl)-N-(4-(trifluoromethyl)pyridin-3-yl)-1H-indazole-3-carboxamide]",< 4.00,7.15
"O=C(Nc1cccnc1)c1n[nH]c2ccc(-c3cncc(CN4CCCCC4)c3)cc12 [compound 46, 5-(5-(Piperidin-1-ylmethyl)pyridin-3-yl)-N-(pyridin-3-yl)-1H-indazole-3-carboxamide]",5.30,7.82
"O=C(NC1CCCCC1)c1cncc(-c2ccc3[nH]nc(C(=O)Nc4cccnc4)c3c2)c1 [compound 59, 5-(5-(Cyclohexylcarbamoyl)pyridin-3-yl)-N-(pyridin-3-yl)-1H-indazole-3-carboxamide]",4.84,5.51
"O=C(Nc1cncc(F)c1)c1n[nH]c2ccc(-c3cccnc3)cc12 [compound 23, N-(5-Fluoropyridin-3-yl)-5-(pyridin-3-yl)-1H-indazole-3-carboxamide]",< 4.00,6.92
"CN1CCN(c2ncccc2NC(=O)c2n[nH]c3ccc(-c4cccnc4)cc23)CC1 [compound 11, N-(2-(4-Methylpiperazin-1-yl)pyridin-3-yl)-5-(pyridin-3-yl)-1H-indazole-3-carboxamide]",< 4.00,≤ 5.00
"Cn1nc(NC(=O)c2n[nH]c3ccc(-c4cccnc4)cc23)cc1C(F)(F)F [compound 37, N-(1-Methyl-5-(trifluoromethyl)-1H-pyrazol-3-yl)-5-(pyridin-3-yl)-1H-indazole-3-carboxamide]",< 4.00,5.95
"O=C(Nc1cccnc1)c1n[nH]c2ccc(-c3cccc(CN4CCCC4)c3)cc12 [compound 49, N-(Pyridin-3-yl)-5-(3-(pyrrolidin-1-ylmethyl)phenyl)-1H-indazole-3-carboxamide]",< 4.00,7.24
"O=C(Nc1cnccc1NC(=O)C1CC1)c1n[nH]c2ccc(-c3cccnc3)cc12 [compound 58, N-(4-(Cyclopropanecarboxamido)pyridin-3-yl)-5-(pyridin-3-yl)-1H-indazole-3-carboxamide]",< 4.00,7.15
"O=C(Nc1ccc(Oc2ccc(F)cc2)nc1)c1n[nH]c2ccc(-c3cccnc3)cc12 [compound 20, N-(6-(4-Fluorophenoxy)pyridin-3-yl)-5-(pyridin-3-yl)-1H-indazole-3-carboxamide]",4.92,6.93
"O=C(Nc1cnccc1C(F)(F)F)c1n[nH]c2ccc(-c3cncc(CN4CCCC4)c3)cc12 [compound 57, 5-(5-(Pyrrolidin-1-ylmethyl)pyridin-3-yl)-N-(4-(trifluoromethyl)pyridin-3-yl)-1H-indazole-3-carboxamide]",< 4.00,≤ 5.00
"O=C(Nc1cnccc1C(F)(F)F)c1n[nH]c2ccc(-c3cccnc3)cc12 [compound 48, 5-(Pyridin-3-yl)-N-(4-(trifluoromethyl)pyridin-3-yl)-1H-indazole-3-carboxamide]",< 4.00,≤ 5.00
"O=C(Nc1ccccc1)c1n[nH]c2ccc(-c3cncc(CN4CCCCC4)c3)cc12 [compound 82, N-Phenyl-5-(5-(piperidin-1-ylmethyl)pyridin-3-yl)-1H-indazole-3-carboxamide]",< 4.00,6.73 to 6.84
"CCOc1ccc(NC(=O)c2n[nH]c3ccc(-c4cncc(CN5CCCC5)c4)cc23)cn1 [compound 44, N-(6-Ethoxypyridin-3-yl)-5-(5-(pyrrolidin-1-ylmethyl)pyridin-3-yl)-1H-indazole-3-carboxamide]",4.60,6.80
"O=C(NC1CCCCC1)c1n[nH]c2ccc(-c3cncc(CN4CCCCC4)c3)cc12 [compound 77, N-Cyclohexyl-5-(5-(piperidin-1-ylmethyl)pyridin-3-yl)-1H-indazole-3-carboxamide]",5.22,5.58
"CN1CCN(c2ccc(NC(=O)c3n[nH]c4ccc(-c5cncc(CN6CCCCC6)c5)cc34)cn2)CC1 [compound 70, N-(6-(4-Methylpiperazin-1-yl)pyridin-3-yl)-5-(5-(piperidin-1-ylmethyl)pyridin-3-yl)-1H-indazole-3-carboxamide]",4.96,7.39
"O=C(Nc1cccnc1)c1n[nH]c2ccc(-c3cncc(CN4CCOCC4)c3)cc12 [compound 64, 5-(5-(Morpholinomethyl)pyridin-3-yl)-N-(pyridin-3-yl)-1H-indazole-3-carboxamide]",5.12,8.22
"CN1CCN(Cc2ccc(NC(=O)c3n[nH]c4ccc(-c5cccnc5)cc34)cn2)CC1 [compound 15, N-(6-((4-Methylpiperazin-1-yl)methyl)pyridin-3-yl)-5-(pyridin-3-yl)-1H-indazole-3-carboxamide]",5.32,7.43
"CN(C)Cc1cncc(NC(=O)c2n[nH]c3ccc(-c4cccnc4)cc23)c1 [compound 7, N-(5-((Dimethylamino)methyl)pyridin-3-yl)-5-(pyridin-3-yl)-1H-indazole-3-carboxamide]",5.16,6.96
"O=C(Nc1cccnc1)c1n[nH]c2ccc(-c3cccnc3)cc12 [compound 4, N,5-di(pyridin-3-yl)-1H-indazole-3-carboxamide]",5.34,6.80

# The next lines start with the values.
pEC50 [1],pEC50 [2],Compound
< 4.00,6.53,"O=C(Nc1ccc(O)nc1)c1n[nH]c2ccc(-c3cncc(CN4CCCCC4)c3)cc12 [compound 178, N-(6-Hydroxypyridin-3-yl)-5-(5-(piperidin-1-ylmethyl)pyridin-3-yl)-1H-indazole-3-carboxamide]"
< 4.00,5.47 to 5.60,"CN1CCN(C(=O)c2n[nH]c3ccc(-c4cncc(CN5CCCCC5)c4)cc23)CC1 [compound 83, (4-Methylpiperazin-1-yl)(5-(5-(piperidin-1-ylmethyl)pyridin-3-yl)-1H-indazol-3-yl)methanone]"
< 4.00,7.37,"O=C(Nc1ccc(N2CCCC2)nc1)c1n[nH]c2ccc(-c3cncc(CN4CCC(O)CC4)c3)cc12 [compound 170, 5-(5-((4-Hydroxypiperidin-1-yl)methyl)pyridin-3-yl)-N-(6-(pyrrolidin-1-yl)pyridin-3-yl)-1H-indazole-3-carboxamide]"
5.26,7.66,"O=C(Nc1ccc(N2CCCCC2)nc1)c1n[nH]c2ccc(-c3cncc(CN4CCCCC4)c3)cc12 [compound 126, N-(6-(Piperidin-1-yl)pyridin-3-yl)-5-(5-(piperidin-1-ylmethyl)pyridin-3-yl)-1H-indazole-3-carboxamide]"
< 4.00,7.07,"O=C(Nc1cccnc1)c1n[nH]c2ccc(-c3cncc(N4CCCC4)c3)cc12 [compound 189, N-(Pyridin-3-yl)-5-(5-(pyrrolidin-1-yl)pyridin-3-yl)-1H-indazole-3-carboxamide]"
5.29,6.74,"O=C(Nc1ccc(N2CCNCC2)nc1)c1n[nH]c2ccc(-c3cncc(CN4CCCCC4)c3)cc12 [compound 177, N-(6-(Piperazin-1-yl)pyridin-3-yl)-5-(5-(piperidin-1-ylmethyl)pyridin-3-yl)-1H-indazole-3-carboxamide]"
< 4.00,7.89,"NC(=O)c1ccc(NC(=O)c2n[nH]c3ccc(-c4cncc(CN5CCCCC5)c4)cc23)cn1 [compound 180, N-(6-carbamoylpyridin-3-yl)-5-(5-(piperidin-1-ylmethyl)pyridin-3-yl)-1H-indazole-3-carboxamide]"
< 4.00,5.92,"CN(C)Cc1cncc(-c2ccc3[nH]nc(C(=O)Nc4ccc(N5CCCC5)nc4)c3c2)c1 [compound 190, 5-(5-((Dimethylamino)methyl)pyridin-3-yl)-N-(6-(pyrrolidin-1-yl)pyridin-3-yl)-1H-indazole-3-carboxamide]"
5.26,7.48,"CN(C)Cc1cncc(NC(=O)c2n[nH]c3ccc(-c4cncc(CN5CCCC5)c4)cc23)c1 [compound 106, N-(5-((Dimethylamino)methyl)pyridin-3-yl)-5-(5-(pyrrolidin-1-ylmethyl)pyridin-3-yl)-1H-indazole-3-carboxamide]"

# — patent US10806726B2, “Methods of using indazole-3-carb oxamides and their use as Wnt/B-catenin signaling pathway inhibitors” (Samumed, LLC, priority 2016, dated 2020)
